US20090149504A1, “Novel 5-Substituted Indole Derivatives As Dipeptidyl Peptidase IV (DPP-IV) Inhibitors” (AURIGENE DISCOVERY TECHNOLOGIES LIMITED, priority 2005, published 2009)
Where a name gives a salt, the structure may show the parent alone.

Legend:
Zucker fa/fa fatty rats = assay: In vivo efficacy in genetic models: oral glucose challenge in Zucker fa/fa rats; design: species or system rat; conditions: 3 mg/kg
Protocol: (a) Zucker fa/fa rats Zucker fa/fa fatty rats were obtained from IffaCredo, France. The animals were maintained under 12 hour light and dark cycle at 24+/−2° C., given standard laboratory chow (NIN, Hyderabad, India) and water, ad libitum. The test compound (Example-4) was administered at 3 mg/kg dose to overnight fasted animals. The control animals received the vehicle (0.2% tween 80, dosed at 1 ml/kg) orally. Thirty minutes after administration of test compound, 2 g/kg glucose at 5 ml/kg was administered by oral gavage. Blood samples were collected at 0 (prior to compound administration), 7, 20, 40, 60 and 120 min after glucose challenge, for estimation of plasma glucose and insulin levels, and DPP-IV activity. Additional blood samples were collected in chilled EDTA tubes and immediately DPP-IV inhibitor (Linco Research, USA) was added to achieve final concentration of 10 μl/mL of blood to estimate GLP-1 levels. Blood samples were centrifuged and separated plasma samples were stored at −20° C. until analysis. Plasma DPP-IV activity and glucose levels were measured as described above (Example-65). Insulin and GLP-1 levels were measured using ELISA kits, as per manufacturer's procedures (Linco Research, USA). […] There was a 7-fold increase in GLP-1 levels at 7 min and 6-fold increase in insulin levels at 15 min after glucose challenge.

[1] = system: Male C57BL/KsJ-db/db mice; assay: In vivo efficacy in genetic models: oral glucose challenge in db/db mice; conditions: 3 mg/kg
Protocol: (b) db/db mice Male C57BL/KsJ-db/db mice of 8 to 14 weeks age, having body weight in the range of 35 to 60 grams, bred at Discovery Research, Dr. Reddy's Laboratories, were used in the experiment. The animals were maintained under 12 hour light and dark cycle at 24+/−2° C., given standard laboratory chow (NIN, Hyderabad, India) and water, ad libitum. The test compound (Example-4) was administered at 3 mg/kg dose. The control animals received the vehicle (0.2% Tween 80, dosed at 10 ml/kg) through oral gavage. 30 minutes after administration of test compound, 1.5 g/kg glucose at 10 ml/kg was administered by oral gavage. Blood samples were collected at 0 (prior to compound administration), 15, 30, 60 and 120 min after glucose challenge for estimation of plasma glucose levels, insulin and DPP-IV activity. Blood samples (0, 7, 15 min) from a satellite group of animals were collected in chilled EDTA tubes and immediately DPP-IV inhibitor (Linco Research) was added to achieve final concentration of 10 μl/mL of blood to estimate GLP-1 levels. Blood samples were centrifuged and separated plasma was stored at −20° C. until analysis. Glucose, Insulin and GLP-1 levels, and plasma DPP-IV activity were measured as described above (Example-66). Compound (Example-4) reduced the glucose levels by 58%. There was 16-fold increase in GLP-1 levels at 7 min and 5.4-fold increase in insulin levels at 15 min after glucose challenge.

[2] = target: T1, DPP-IV from porcine kidney (Sus scrofa, UniProt P22411); assay: In vitro DPP IV inhibition measurement (fluorimetric, Gly-Pro-AMC substrate); format: biochemical; conditions: 50 μM Gly-Pro-AMC, pH 8, 30° C.
T1 construct: DPP-IV from porcine kidney (D-7052); purchased Sigma Chemical Company, USA D-7052; host or cells: porcine kidney (tissue-derived)
Protocol: DPP-IV from porcine kidney (D-7052) and the substrate Gly-Pro-7-amido-4-methylcoumar0in hydrobromide (Gly-Pro-AMC, G2761) were obtained from Sigma Chemical Company, USA. Stock solutions of test compounds were prepared in dimethylsulfoxide. DPP IV enzyme cleaves the peptide substrate Gly-Pro-AMC leading to the formation of AMC, which is highly fluorescent. Molecules that inhibit DPP IV prevent or reduce the liberation of AMC from the substrate. The ability of test compounds to inhibit DPP IV was measured fluorimetrically by monitoring the formation of AMC. The assay was carried out in 20 mM Tris.HCl, pH 8 buffer. Test compounds were incubated with the enzyme (5 mU/100 μl) in a 96-well black flat bottom microtiter plate (Greiner bio-one, Germany) for 20 minutes at 30° C. and the reaction was initiated by the addition of 50 μM Gly-Pro-AMC. After 30 minutes incubation at 30° C., the fluorescence at 460 nm was measured (λex=360 nm) in a Spectramax Gemini spectrofluorimeter (Molecular Devices, USA). IC50, the concentration of compound required to inhibit 50% of enzyme activity was determined and the compounds were rated accordingly. For the IC50 determination, non-linear fitting of the dose-response curves were carried out using Kaleidagraph v3 software. LAF237 [Novarti's vildagliptin is a new class of oral antidiabetic agents known as dipeptidyl peptidase IV inhibitors (DPP-IV) inhibitors] was used as the standard inhibitor for the assay.

Male wistar rats = assay: In vivo efficacy study in rat: oral glucose tolerance (plasma glucose); conditions: 3 mg/kg oral, 2 g/kg oral glucose, measured at 20 min after glucose challenge
Protocol: (§1) Male wistar rats were divided into groups of 6, fasted for approximately 16-18 hours before the experiment, and dosed orally with 0.3, 1, 3 and 10 mg/kg of the test compounds in carboxymethylcellulose (CMC) or Tween 80. After 30 min of test compound dosing, an oral glucose bolus of 2 g/kg was administered directly into the stomach of the test animals. Blood samples obtained at various time points from chronic jugular vein catheters/retro orbital bleed were analyzed for plasma glucose and plasma DPP-IV activity. Measurement of Plasma glucose was carried out using Merckotest Glucose kit (GOD-POD method, Merck) in Selectra Clinical Chemistry analyzer, and area under the curve (AUC) for glucose (0-120 min) was calculated. Plasma DPP-IV activity was measured as described above (Example-64), using 2 μl plasma for every reaction.

Plasma DPP-IV activity = target: T2, Plasma DPP-IV activity (Rattus norvegicus, UniProt P14740); assay: In vivo efficacy study in rat: plasma DPP-IV activity after oral dosing; conditions: 3 mg/kg oral, male wistar rats, measured at 20 min after glucose challenge
T2 construct: from tissue; host or cells: plasma of orally dosed male Wistar rats
Protocol: DPP-IV from porcine kidney (D-7052) and the substrate Gly-Pro-7-amido-4-methylcoumar0in hydrobromide (Gly-Pro-AMC, G2761) were obtained from Sigma Chemical Company, USA. Stock solutions of test compounds were prepared in dimethylsulfoxide. DPP IV enzyme cleaves the peptide substrate Gly-Pro-AMC leading to the formation of AMC, which is highly fluorescent. Molecules that inhibit DPP IV prevent or reduce the liberation of AMC from the substrate. The ability of test compounds to inhibit DPP IV was measured fluorimetrically by monitoring the formation of AMC. The assay was carried out in 20 mM Tris.HCl, pH 8 buffer. […] After 30 minutes incubation at 30° C., the fluorescence at 460 nm was measured (λex=360 nm) in a Spectramax Gemini spectrofluorimeter (Molecular Devices, USA). […]
as §1, with “After 30 min of test compound dosing, an oral glucose bolus of 2 g/kg was administered directly into the stomach of the test animals.” left out, “Plasma DPP-IV activity was measured as described above (Example-64), using 2 μl plasma for every reaction.” left out

[3] = at 7 min after glucose challenge
[4] = at 15 min after glucose challenge

T1 sequence (P22411 whole entry): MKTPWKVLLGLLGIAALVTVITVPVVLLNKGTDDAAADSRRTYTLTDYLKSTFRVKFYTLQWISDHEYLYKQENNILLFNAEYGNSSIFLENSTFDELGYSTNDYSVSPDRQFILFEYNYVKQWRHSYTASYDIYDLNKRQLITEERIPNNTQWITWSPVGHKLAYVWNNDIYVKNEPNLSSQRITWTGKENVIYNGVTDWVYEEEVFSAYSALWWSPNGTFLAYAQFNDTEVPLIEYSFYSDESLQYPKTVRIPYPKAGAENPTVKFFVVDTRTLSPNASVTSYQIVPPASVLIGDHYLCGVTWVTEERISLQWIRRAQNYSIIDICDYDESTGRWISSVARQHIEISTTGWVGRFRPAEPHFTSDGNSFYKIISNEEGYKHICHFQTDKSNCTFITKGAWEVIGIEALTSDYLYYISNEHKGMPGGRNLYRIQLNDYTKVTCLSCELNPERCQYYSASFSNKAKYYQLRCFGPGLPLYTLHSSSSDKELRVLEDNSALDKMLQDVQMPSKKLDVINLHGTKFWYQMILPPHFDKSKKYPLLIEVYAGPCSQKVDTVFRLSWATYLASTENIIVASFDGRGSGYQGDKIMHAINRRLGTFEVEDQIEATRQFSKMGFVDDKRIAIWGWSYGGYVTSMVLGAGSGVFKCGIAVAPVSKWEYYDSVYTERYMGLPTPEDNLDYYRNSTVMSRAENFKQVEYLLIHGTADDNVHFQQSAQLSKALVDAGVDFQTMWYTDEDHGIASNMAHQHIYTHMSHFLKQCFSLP
T2 sequence (P14740 37-767 limits assumed): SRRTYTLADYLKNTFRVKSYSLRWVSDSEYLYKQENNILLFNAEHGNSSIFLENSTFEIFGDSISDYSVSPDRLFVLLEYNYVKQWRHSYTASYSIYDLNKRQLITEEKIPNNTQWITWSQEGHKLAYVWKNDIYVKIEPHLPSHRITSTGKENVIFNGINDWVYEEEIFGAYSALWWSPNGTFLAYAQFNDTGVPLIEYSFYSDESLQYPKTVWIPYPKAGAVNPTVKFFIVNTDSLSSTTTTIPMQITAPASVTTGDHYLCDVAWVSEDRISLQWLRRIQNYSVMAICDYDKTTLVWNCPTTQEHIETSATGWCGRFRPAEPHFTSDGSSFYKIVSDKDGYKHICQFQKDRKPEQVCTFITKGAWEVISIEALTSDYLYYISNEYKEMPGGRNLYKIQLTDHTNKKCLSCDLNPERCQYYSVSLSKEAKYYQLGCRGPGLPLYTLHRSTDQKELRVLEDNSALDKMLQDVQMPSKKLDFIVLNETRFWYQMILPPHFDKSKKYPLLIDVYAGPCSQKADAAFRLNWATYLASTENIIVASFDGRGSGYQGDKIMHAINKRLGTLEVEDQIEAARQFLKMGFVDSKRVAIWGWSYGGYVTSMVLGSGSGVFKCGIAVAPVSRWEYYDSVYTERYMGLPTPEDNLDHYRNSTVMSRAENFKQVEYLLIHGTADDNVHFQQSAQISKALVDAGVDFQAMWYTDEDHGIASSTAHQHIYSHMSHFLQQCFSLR

Row | SMILES | IC50 [2] [nM] | also measured
1 | N#C[C@@H]1CCCN1C(=O)[C@@H](N)Cc1c[nH]c2ccc(Oc3ccc([N+](=O)[O-])cn3)cc12 [Example 4, Trifluoroacetic acid salt] | 1.32 | reduction in glucose (Zucker fa/fa fatty rats; 2 g/kg oral glucose 30 min after compound): 55%; increase in GLP-1 levels (Zucker fa/fa fatty rats; [3]): 7 fold; increase in insulin levels (Zucker fa/fa fatty rats; [4]): 6 fold; reduced the glucose levels ([1]; 1.5 g/kg oral glucose 30 min after compound): 58%; increase in GLP-1 levels [1, 3]: 16 fold; increase in insulin levels [1, 4]: 5.4 fold; % Glucose reduction (Male wistar rats): 34%; inhibition at 3 mg/kg (Plasma DPP-IV activity): 90%
2 | N#Cc1ccc(Oc2ccc3[nH]cc(C[C@H](N)C(=O)N4CCC[C@H]4C#N)c3c2)nc1 [Example 6, (S,S) 6-{3-[2-Amino-3-(2-cyano-pyrrolidin-1-yl)-3-oxo-propyl]-1H-indol-5-yloxy}-nicotinonitrile. Trifluoroacetic acid salt] | 5.5 | 
3 | N#C[C@@H]1CCCN1C(=O)[C@@H](N)Cc1c[nH]c2ccc(Oc3ccc([N+](=O)[O-])cc3)cc12 [Example 12] | 1.82 | % Glucose reduction (Male wistar rats): 22%; inhibition at 3 mg/kg (Plasma DPP-IV activity): 74%
4 | N#Cc1cccnc1Oc1ccc2[nH]cc(C[C@H](N)C(=O)N3C[C@@H](F)C[C@H]3C#N)c2c1 [Example 27, (S,S,S) 2-{3-[2-Amino-3-(2-cyano-4-fluoro-pyrrolidin-1-yl)-3-oxo-propyl]-1H-indol-5-yloxy} nicotinonitrile. Trifluoroacetic acid salt] | 8.9 | 
5 | N#C[C@@H]1C[C@H](F)CN1C(=O)[C@@H](N)Cc1c[nH]c2ccc(Oc3ccc([N+](=O)[O-])cc3)cc12 [Example 28, Trifluoroacetic acid salt] | 1.5 | 
6 | N#Cc1ccc(Oc2ccc3[nH]cc(C[C@H](N)C(=O)N4C[C@@H](F)C[C@H]4C#N)c3c2)nc1 [Example 30, (S,S,S) 6-{3-[2-Amino-3-(2-cyano-4-fluoro-pyrrolidin-1-yl)-3-oxo-propyl]-1H-indol-5-yloxy}-nicotinonitrile. Trifluoroacetic acid salt] | 4.7 | 
7 | N#Cc1cccnc1Oc1ccc2[nH]cc(C[C@H](N)C(=O)N3CSC[C@@H]3C#N)c2c1 [Example 32, (S,S) 2-{3-[2-Amino-3-(4-cyano-thiazolidin-3-yl)-3-oxo-propyl]-1H-indol-5-yloxy}-nicotinonitrile. Trifluoroacetic acid salt] | 6.3 | 
8 | N#Cc1ccc(Oc2ccc3[nH]cc(C[C@H](N)C(=O)N4CSC[C@@H]4C#N)c3c2)nc1 [Example 33, (S,S) 6-{3-[2-Amino-3-(4-cyano-thiazolidin-3-yl)-3-oxo-propyl]-1H-indol-5-yloxy}-nicotinonitrile. Trifluoroacetic acid salt] | 3.5 | 
9 | N#C[C@H]1CSCN1C(=O)[C@@H](N)Cc1c[nH]c2ccc(Oc3ccc([N+](=O)[O-])cc3)cc12 [Example 34, Trifluoroacetic acid salt] | 2.8 | 
10 | N#C[C@H]1CSCN1C(=O)[C@@H](N)Cc1c[nH]c2ccc(Oc3ccc([N+](=O)[O-])cn3)cc12 [Example 35, (S,S) 3-{2-Amino-3-[5-(5-nitro-pyridin-2-yloxy)-1H-indol-3-yl]-propionyl}-thiazolidine-4-carbonitrile. Trifluoroacetic acid salt] | 3.7 | 
